Results from ChEMBL document CHEMBL4507290 (2021).

Assays:
[1] = biological target: RAF proto-oncogene serine/threonine-protein kinase (Homo sapiens) (UniProt P04049); details: Compound concentration 1000.0 nM
[2] = biological target: Ephrin type-A receptor 1 (Homo sapiens) (UniProt P21709); details: Compound concentration 1000.0 nM
[3] = biological target: Serine/threonine-protein kinase TAO2 (Homo sapiens) (UniProt Q9UL54); details: Compound concentration 1000.0 nM
[4] = test system: Fibroblast growth factor receptor 3 (Homo sapiens), P22607 [G697C]; details: Compound concentration 1000.0 nM
[5] = biological target: MAP kinase-interacting serine/threonine-protein kinase 1 (Homo sapiens) (UniProt Q9BUB5); details: Compound concentration 1000.0 nM
[6] = biological target: Myosin light chain kinase, smooth muscle (Homo sapiens) (UniProt Q15746); details: Compound concentration 1000.0 nM
[7] = test system: Receptor-type tyrosine-protein kinase FLT3 (Homo sapiens), P36888 [UNDEFINED MUTATION]; details: Compound concentration 1000.0 nM
[8] = biological target: Histamine H4 receptor (Homo sapiens) (UniProt Q9H3N8); details: Compound concentration 10.0 uM
[9] = biological target: Ribosomal protein S6 kinase alpha-3 (Homo sapiens) (UniProt P51812); details: Compound concentration 1000.0 nM
[10] = biological target: Cyclin-dependent kinase 14 (Homo sapiens) (UniProt O94921); details: Compound concentration 1000.0 nM
[11] = biological target: LIM domain kinase 2 (Homo sapiens) (UniProt P53671); details: Compound concentration 1000.0 nM
[12] = biological target: Platelet-derived growth factor receptor alpha (Homo sapiens) (UniProt P16234); details: Compound concentration 1000.0 nM
[13] = biological target: 5-hydroxytryptamine receptor 1B (Homo sapiens) (UniProt P28222); details: Compound concentration 10.0 uM
[14] = biological target: Fibroblast growth factor receptor 1 (Homo sapiens) (UniProt P11362); details: Compound concentration 1000.0 nM
[15] = biological target: Myosin-IIIb (Homo sapiens) (UniProt Q8WXR4); details: Compound concentration 1000.0 nM
[16] = biological target: Cyclin-dependent kinase 5 (Homo sapiens) (UniProt Q00535); details: Compound concentration 1000.0 nM
[17] = biological target: Mitogen-activated protein kinase 1 (Homo sapiens) (UniProt P28482); details: Compound concentration 1000.0 nM
[18] = biological target: NT-3 growth factor receptor (Homo sapiens) (UniProt Q16288); details: Compound concentration 1000.0 nM
[19] = biological target: Receptor-interacting serine/threonine-protein kinase 4 (Homo sapiens) (UniProt P57078); details: Compound concentration 1000.0 nM
[20] = biological target: Serine/threonine-protein kinase BRSK2 (Homo sapiens) (UniProt Q8IWQ3); details: Compound concentration 1000.0 nM
[21] = biological target: Ribosomal protein S6 kinase alpha-6 (Homo sapiens) (UniProt Q9UK32); details: Compound concentration 1000.0 nM
[22] = biological target: cGMP-dependent protein kinase 2 (Homo sapiens) (UniProt Q13237); details: Compound concentration 1000.0 nM
[23] = biological target: Cyclin-dependent kinase 4 (Homo sapiens) (UniProt P11802); details: Compound concentration 1000.0 nM
[24] = biological target: 5-hydroxytryptamine receptor 2A (Homo sapiens) (UniProt P28223); details: Compound concentration 10.0 uM
[25] = biological target: Protein kinase C theta type (Homo sapiens) (UniProt Q04759); details: Compound concentration 1000.0 nM
[26] = biological target: Ephrin type-B receptor 2 (Homo sapiens) (UniProt P29323); details: Compound concentration 1000.0 nM
[27] = test system: Phosphatidylinositol 4,5-bisphosphate 3-kinase catalytic subunit alpha isoform (Homo sapiens), P42336 [M1043I]; details: Compound concentration 1000.0 nM
[28] = biological target: Calcium/calmodulin-dependent protein kinase type II subunit beta (Homo sapiens) (UniProt Q13554); details: Compound concentration 1000.0 nM
[29] = biological target: Serine/threonine-protein kinase Sgk3 (Homo sapiens) (UniProt Q96BR1); details: Compound concentration 1000.0 nM
[30] = biological target: Cyclin-dependent kinase 2 homolog (Plasmodium falciparum (isolate 3D7)) (UniProt P61075); details: Compound concentration 1000.0 nM
[31] = biological target: Mitogen-activated protein kinase kinase kinase 2 (Homo sapiens) (UniProt Q9Y2U5); details: Compound concentration 1000.0 nM
[32] = biological target: Casein kinase I isoform gamma-1 (Homo sapiens) (UniProt Q9HCP0); details: Compound concentration 1000.0 nM
[33] = biological target: Tyrosine-protein kinase Yes (Homo sapiens) (UniProt P07947); details: Compound concentration 1000.0 nM
[34] = biological target: Glycogen synthase kinase-3 alpha (Homo sapiens) (UniProt P49840); details: Compound concentration 1000.0 nM
[35] = test system: Tyrosine-protein kinase ABL1 (Homo sapiens), P00519 [T315I]; details: Compound concentration 1000.0 nM
[36] = biological target: MAP kinase-interacting serine/threonine-protein kinase 2 (Homo sapiens) (UniProt Q9HBH9); details: Compound concentration 1000.0 nM
[37] = biological target: Ephrin type-A receptor 7 (Homo sapiens) (UniProt Q15375); details: Compound concentration 1000.0 nM
[38] = biological target: Beta-3 adrenergic receptor (Homo sapiens) (UniProt P13945); details: Compound concentration 10.0 uM
[39] = biological target: Receptor tyrosine-protein kinase erbB-3 (Homo sapiens) (UniProt P21860); details: Compound concentration 1000.0 nM
[40] = biological target: Serine/threonine-protein kinase DCLK2 (Homo sapiens) (UniProt Q8N568); details: Compound concentration 1000.0 nM
[41] = biological target: Discoidin domain-containing receptor 2 (Homo sapiens) (UniProt Q16832); details: Compound concentration 1000.0 nM
[42] = biological target: LIM domain kinase 1 (Homo sapiens) (UniProt P53667); details: Compound concentration 1000.0 nM
[43] = biological target: Ephrin type-A receptor 5 (Homo sapiens) (UniProt P54756); details: Compound concentration 1000.0 nM
[44] = biological target: Beta-adrenergic receptor kinase 1 (Homo sapiens) (UniProt P25098); details: Compound concentration 1000.0 nM
[45] = biological target: Ribosomal protein S6 kinase alpha-4 (Homo sapiens) (UniProt O75676); details: Compound concentration 1000.0 nM

Casein kinase I isoform gamma-1 (Homo sapiens), sequence (Q9HCP0 whole entry, looked up, canonical isoform): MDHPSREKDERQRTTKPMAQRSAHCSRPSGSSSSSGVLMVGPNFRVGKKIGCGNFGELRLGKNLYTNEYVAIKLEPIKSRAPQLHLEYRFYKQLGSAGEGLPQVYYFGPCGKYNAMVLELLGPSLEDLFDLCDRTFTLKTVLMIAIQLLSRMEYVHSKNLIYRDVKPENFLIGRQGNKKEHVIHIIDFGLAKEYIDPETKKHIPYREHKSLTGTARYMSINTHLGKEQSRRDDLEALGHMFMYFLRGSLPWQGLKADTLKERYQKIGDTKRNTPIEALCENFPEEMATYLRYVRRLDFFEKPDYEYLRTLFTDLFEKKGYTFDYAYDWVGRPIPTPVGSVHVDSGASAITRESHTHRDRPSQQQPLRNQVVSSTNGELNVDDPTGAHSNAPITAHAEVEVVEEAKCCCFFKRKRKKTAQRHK
Beta-3 adrenergic receptor (Homo sapiens), sequence (P13945 whole entry, looked up): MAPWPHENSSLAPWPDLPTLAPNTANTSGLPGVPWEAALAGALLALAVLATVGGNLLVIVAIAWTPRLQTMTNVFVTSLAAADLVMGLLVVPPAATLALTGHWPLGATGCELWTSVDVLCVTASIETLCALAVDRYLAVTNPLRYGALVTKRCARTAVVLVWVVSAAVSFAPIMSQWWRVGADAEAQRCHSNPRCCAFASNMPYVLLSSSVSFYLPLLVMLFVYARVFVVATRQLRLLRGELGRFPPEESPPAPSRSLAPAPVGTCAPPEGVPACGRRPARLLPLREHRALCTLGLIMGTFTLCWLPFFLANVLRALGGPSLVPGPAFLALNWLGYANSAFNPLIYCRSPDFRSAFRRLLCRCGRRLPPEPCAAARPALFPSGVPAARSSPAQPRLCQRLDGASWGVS
Myosin light chain kinase, smooth muscle (Homo sapiens), sequence (Q15746 whole entry): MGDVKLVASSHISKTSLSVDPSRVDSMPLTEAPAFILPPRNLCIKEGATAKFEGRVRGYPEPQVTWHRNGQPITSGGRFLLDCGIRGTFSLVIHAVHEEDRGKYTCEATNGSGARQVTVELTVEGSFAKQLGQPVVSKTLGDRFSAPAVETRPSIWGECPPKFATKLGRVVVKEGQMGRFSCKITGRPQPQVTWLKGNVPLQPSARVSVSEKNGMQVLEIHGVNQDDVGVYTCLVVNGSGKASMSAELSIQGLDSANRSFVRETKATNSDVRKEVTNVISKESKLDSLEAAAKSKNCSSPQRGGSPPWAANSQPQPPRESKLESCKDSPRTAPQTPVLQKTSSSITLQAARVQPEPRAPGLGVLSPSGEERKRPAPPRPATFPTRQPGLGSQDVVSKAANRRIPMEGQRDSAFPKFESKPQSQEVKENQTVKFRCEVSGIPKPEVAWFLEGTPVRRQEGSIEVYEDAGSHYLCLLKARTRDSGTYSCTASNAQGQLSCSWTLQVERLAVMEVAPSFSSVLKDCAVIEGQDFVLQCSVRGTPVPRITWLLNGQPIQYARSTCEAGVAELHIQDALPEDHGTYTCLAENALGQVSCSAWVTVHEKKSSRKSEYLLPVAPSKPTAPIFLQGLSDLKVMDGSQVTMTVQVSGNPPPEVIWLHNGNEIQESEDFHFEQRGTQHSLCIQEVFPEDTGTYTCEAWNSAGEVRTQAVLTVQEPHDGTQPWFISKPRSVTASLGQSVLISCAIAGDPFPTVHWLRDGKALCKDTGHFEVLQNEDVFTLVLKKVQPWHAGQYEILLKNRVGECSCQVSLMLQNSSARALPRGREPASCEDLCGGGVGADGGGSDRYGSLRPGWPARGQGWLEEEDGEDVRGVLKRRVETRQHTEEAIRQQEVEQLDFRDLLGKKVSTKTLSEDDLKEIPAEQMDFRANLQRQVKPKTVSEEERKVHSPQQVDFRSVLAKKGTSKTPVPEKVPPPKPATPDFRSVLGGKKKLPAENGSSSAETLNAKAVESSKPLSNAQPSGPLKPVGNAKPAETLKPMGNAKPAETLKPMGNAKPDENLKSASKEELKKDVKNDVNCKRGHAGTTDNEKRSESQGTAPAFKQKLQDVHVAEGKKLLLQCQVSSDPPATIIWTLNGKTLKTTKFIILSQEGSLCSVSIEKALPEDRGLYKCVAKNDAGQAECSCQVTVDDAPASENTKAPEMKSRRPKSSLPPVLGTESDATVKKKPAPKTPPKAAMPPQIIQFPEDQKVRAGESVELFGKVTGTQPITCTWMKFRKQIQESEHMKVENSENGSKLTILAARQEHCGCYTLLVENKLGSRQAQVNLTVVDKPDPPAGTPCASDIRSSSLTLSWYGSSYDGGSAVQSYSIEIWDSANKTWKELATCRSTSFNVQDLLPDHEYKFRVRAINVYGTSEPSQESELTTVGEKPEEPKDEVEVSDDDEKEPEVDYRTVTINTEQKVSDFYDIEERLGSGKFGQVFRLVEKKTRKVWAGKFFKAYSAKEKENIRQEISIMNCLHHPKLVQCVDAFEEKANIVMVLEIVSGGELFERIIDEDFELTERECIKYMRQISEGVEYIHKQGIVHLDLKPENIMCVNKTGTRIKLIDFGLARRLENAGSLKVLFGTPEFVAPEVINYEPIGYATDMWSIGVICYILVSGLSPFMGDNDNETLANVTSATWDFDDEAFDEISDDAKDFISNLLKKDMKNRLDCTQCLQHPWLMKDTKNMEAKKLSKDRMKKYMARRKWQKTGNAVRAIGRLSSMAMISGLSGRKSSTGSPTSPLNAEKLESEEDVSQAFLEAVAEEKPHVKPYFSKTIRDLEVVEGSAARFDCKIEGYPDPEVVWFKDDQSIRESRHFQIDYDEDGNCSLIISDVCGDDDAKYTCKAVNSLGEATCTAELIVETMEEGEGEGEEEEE
Tyrosine-protein kinase Yes (Homo sapiens), sequence (P07947 2-543 limits assumed): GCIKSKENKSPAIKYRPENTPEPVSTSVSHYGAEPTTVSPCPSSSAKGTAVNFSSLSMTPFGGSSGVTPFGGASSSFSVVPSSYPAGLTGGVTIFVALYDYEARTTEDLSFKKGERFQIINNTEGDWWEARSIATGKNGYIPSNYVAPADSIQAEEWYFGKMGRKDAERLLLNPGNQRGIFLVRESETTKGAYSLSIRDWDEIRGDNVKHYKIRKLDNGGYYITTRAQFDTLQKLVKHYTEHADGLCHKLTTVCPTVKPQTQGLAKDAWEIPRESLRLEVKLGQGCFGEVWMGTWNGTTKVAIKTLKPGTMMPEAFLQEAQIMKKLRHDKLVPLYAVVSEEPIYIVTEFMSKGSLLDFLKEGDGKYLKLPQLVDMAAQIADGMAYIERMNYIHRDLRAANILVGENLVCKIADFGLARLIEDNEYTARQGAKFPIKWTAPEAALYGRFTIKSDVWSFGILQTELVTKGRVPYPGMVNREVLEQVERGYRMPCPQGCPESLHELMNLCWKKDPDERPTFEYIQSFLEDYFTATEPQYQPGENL
5-hydroxytryptamine receptor 1B (Homo sapiens), sequence (P28222 whole entry): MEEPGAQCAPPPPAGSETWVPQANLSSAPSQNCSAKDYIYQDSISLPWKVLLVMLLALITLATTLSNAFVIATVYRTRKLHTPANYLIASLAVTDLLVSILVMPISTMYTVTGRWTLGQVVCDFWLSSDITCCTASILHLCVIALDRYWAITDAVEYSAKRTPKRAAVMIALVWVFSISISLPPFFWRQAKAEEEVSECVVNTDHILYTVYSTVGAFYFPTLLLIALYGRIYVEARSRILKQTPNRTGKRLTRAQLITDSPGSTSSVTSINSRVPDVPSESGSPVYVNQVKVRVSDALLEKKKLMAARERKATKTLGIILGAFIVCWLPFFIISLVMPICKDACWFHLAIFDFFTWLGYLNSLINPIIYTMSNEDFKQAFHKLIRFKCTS
MAP kinase-interacting serine/threonine-protein kinase 2 (Homo sapiens), sequence (Q9HBH9 whole entry, looked up): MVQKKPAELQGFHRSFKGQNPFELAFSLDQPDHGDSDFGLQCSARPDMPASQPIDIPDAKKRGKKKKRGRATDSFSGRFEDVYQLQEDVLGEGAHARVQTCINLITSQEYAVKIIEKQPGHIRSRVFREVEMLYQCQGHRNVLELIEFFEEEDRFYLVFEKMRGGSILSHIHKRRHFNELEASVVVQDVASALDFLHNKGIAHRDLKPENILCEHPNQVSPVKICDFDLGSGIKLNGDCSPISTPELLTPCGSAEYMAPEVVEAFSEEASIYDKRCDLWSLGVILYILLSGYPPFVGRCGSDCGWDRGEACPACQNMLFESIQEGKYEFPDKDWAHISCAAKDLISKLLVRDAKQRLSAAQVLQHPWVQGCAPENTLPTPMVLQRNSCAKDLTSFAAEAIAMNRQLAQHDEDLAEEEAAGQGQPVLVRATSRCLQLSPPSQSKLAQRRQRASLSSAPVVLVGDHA
LIM domain kinase 1 (Homo sapiens), sequence (P53667 whole entry, looked up, the tested form may be a part): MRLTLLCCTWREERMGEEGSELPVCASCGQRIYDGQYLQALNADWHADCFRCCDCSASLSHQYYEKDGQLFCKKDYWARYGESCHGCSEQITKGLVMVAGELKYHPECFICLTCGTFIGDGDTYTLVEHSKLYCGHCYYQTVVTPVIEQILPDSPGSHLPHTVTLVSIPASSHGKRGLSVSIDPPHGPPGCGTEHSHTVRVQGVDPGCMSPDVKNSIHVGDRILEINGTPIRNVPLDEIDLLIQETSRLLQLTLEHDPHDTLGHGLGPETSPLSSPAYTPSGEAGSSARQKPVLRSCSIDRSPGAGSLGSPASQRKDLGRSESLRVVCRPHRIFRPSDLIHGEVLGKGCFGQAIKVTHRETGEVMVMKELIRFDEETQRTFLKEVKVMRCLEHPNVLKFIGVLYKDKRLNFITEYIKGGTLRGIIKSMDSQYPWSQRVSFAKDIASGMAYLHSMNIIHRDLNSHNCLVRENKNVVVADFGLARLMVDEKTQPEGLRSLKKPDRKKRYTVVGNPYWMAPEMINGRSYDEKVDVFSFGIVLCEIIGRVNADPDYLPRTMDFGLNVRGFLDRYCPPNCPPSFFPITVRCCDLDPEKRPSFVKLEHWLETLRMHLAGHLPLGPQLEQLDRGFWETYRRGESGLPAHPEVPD

CN([C@@H]1CCc2c(CC(=O)O)c3ccccc3n2C1)S(=O)(=O)c1ccc(F)cc1 [MK-7246]
inactive: residual activity [1] 100% | residual activity [2] 100% | residual activity [3] 82% | residual activity [4] 100% | residual activity [5] 93% | residual activity [6] 100% | residual activity [7] 96% | inhibition [8] 25.9% | residual activity [9] 86% | residual activity [10] 100% | residual activity [11] 100% | residual activity [12] 100% | inhibition [13] 35.6% | residual activity [14] 100% | residual activity [15] 100% | residual activity [16] 100% | residual activity [17] 97% | residual activity [18] 100% | residual activity [19] 85% | residual activity [20] 100% | residual activity [21] 100% | residual activity [22] 100% | residual activity [23] 87% | inhibition [24] -6.57% | residual activity [25] 83% | residual activity [26] 100% | residual activity [27] 100% | residual activity [28] 99% | residual activity [29] 100% | residual activity [30] 94% | residual activity [31] 100% | residual activity [32] 100% | residual activity [33] 100% | residual activity [34] 90% | residual activity [35] 98% | residual activity [36] 100% | residual activity [37] 100% | inhibition [38] 26.9% | residual activity [39] 100% | residual activity [40] 100% | residual activity [41] 98% | residual activity [42] 100% | residual activity [43] 99% | residual activity [44] 86% | residual activity [45] 96%

CN([C@@H]1CCc2c(CC(=O)O)c3cc(S(C)(=O)=O)ccc3n2C1)S(=O)(=O)c1ccc(F)cc1
inactive: residual activity [1] 100% | residual activity [2] 88% | residual activity [3] 100% | residual activity [4] 90% | residual activity [5] 86% | residual activity [6] 94% | residual activity [7] 98% | inhibition [8] 16% | residual activity [9] 81% | residual activity [10] 100% | residual activity [11] 100% | residual activity [12] 100% | inhibition [13] 2.6% | residual activity [14] 100% | residual activity [15] 100% | residual activity [16] 86% | residual activity [17] 77% | residual activity [18] 100% | residual activity [19] 75% | residual activity [20] 100% | residual activity [21] 100% | residual activity [22] 95% | residual activity [23] 90% | inhibition [24] 7.27% | residual activity [25] 78% | residual activity [26] 87% | residual activity [27] 98% | residual activity [28] 100% | residual activity [29] 85% | residual activity [30] 100% | residual activity [31] 89% | residual activity [32] 91% | residual activity [33] 88% | residual activity [34] 100% | residual activity [35] 93% | residual activity [36] 100% | residual activity [37] 100% | inhibition [38] 0.851% | residual activity [39] 100% | residual activity [40] 100% | residual activity [41] 88% | residual activity [42] 100% | residual activity [43] 78% | residual activity [44] 84% | residual activity [45] 97%
